Measurements taken from ChEMBL document CHEMBL1124159, “Synthesis and structure-activity relationships of 2-sulfonamido-1,3,4,6,7,11b alpha-hexahydro-2H-benzo[a]quinolizines as alpha 2-adrenoceptor antagonists” (J Med Chem, 1988).
One block for each compound: values may come before it.

Tests used:
[1] = target: T1, Adrenergic receptor alpha-2 (Rattus norvegicus, UniProt P22086+P19328+P22909); assay: Antagonistic activity against alpha-2 adrenergic receptor in rat vas deferens; type: functional, tissue-based
T1 sequence (P22086 whole entry): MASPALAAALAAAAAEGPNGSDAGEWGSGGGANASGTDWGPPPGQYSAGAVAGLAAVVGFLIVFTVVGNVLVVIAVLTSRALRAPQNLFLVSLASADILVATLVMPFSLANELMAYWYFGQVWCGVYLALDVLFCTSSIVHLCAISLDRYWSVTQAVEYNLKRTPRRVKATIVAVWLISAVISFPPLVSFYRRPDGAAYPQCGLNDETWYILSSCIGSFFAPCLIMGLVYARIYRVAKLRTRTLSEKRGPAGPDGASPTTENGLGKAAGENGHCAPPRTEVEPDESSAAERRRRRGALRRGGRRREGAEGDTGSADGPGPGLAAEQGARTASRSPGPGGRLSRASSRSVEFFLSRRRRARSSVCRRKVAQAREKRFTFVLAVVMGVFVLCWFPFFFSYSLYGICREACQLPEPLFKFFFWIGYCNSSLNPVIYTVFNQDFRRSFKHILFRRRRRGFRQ
T1 sequence (P19328 whole entry): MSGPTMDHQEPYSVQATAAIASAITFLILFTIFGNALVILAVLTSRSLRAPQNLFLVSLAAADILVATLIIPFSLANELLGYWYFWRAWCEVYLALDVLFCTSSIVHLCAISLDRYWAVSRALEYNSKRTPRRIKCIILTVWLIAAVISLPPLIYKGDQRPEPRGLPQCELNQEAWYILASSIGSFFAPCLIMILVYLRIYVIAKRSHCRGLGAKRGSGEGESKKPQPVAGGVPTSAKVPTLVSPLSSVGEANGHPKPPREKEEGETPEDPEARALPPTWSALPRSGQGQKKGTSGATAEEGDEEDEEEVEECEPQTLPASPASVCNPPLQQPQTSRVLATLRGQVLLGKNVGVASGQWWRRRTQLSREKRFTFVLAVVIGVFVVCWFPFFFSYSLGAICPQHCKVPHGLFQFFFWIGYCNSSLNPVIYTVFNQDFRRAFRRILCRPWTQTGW
T1 sequence (P22909 whole entry): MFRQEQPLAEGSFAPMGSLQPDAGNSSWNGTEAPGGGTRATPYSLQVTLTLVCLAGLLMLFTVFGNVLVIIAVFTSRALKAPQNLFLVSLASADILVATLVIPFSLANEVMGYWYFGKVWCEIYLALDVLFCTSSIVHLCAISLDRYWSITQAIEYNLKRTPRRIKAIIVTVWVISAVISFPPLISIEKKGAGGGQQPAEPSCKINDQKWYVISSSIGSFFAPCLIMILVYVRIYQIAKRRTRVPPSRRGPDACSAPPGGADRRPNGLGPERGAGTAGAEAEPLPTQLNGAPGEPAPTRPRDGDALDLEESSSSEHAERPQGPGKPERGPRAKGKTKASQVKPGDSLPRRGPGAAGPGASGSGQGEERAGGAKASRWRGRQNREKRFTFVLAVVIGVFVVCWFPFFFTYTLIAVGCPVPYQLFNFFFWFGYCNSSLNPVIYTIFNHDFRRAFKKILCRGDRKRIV

[2] = target: T2, Adrenergic receptor alpha-1 (Rattus norvegicus, UniProt P15823+P23944+P43140); assay: Antagonistic activity against alpha-1 adrenergic receptor in isolated rat anococcygeus muscle; type: functional, tissue-based
T2 sequence (P15823 whole entry): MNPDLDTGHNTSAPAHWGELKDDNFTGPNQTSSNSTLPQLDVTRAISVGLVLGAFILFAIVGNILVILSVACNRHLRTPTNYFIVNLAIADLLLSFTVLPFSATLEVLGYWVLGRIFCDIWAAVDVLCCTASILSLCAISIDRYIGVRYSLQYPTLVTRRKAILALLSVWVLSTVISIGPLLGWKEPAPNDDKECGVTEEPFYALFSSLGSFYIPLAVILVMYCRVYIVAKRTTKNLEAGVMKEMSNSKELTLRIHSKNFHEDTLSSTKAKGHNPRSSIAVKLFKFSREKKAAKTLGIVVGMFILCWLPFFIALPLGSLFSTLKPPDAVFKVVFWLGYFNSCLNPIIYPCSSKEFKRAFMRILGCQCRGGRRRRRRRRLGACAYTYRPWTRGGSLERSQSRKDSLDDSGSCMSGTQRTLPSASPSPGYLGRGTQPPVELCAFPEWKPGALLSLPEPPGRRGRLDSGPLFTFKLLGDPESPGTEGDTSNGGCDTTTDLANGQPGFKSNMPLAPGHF
T2 sequence (P23944 whole entry): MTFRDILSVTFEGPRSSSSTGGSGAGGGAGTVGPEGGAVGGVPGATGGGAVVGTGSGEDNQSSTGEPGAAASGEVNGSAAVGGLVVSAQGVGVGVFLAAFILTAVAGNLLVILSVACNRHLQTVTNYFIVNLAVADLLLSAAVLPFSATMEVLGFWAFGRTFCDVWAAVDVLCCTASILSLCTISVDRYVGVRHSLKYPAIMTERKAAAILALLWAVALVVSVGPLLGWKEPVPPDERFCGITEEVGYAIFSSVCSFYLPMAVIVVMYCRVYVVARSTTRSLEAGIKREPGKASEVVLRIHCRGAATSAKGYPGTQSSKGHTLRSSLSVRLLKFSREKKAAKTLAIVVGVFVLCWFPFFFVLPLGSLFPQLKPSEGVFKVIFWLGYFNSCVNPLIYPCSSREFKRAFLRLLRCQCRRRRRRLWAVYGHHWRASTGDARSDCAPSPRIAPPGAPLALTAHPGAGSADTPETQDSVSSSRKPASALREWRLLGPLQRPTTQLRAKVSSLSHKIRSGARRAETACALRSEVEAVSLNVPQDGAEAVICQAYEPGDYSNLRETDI
T2 sequence (P43140 whole entry): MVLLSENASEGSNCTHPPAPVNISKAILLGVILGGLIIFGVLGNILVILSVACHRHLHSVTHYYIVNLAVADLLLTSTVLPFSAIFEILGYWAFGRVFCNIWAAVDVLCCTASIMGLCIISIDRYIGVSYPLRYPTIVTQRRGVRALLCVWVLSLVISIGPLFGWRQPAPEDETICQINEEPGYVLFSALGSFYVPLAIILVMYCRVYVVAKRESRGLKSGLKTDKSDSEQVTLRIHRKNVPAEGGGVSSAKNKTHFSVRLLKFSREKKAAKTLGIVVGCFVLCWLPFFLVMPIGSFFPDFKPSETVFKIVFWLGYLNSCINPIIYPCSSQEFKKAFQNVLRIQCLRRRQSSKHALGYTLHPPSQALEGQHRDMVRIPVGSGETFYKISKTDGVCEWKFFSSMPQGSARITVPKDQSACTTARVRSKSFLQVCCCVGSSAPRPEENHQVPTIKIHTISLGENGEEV

pA2 [1]: < 5
pA2 [2]: 5.2
SMILES: CC(C)CS(=O)(=O)N(C)[C@H]1CCN2CCc3ccccc3[C@H]2C1

pA2 [1]: 8.26
pA2 [2]: 6.61
SMILES: CN([C@@H]1CCN2CCc3ccccc3[C@@H]2C1)S(=O)(=O)CCl

pA2 [1]: 7.4
pA2 [2]: 5.95
SMILES: CN(C)S(=O)(=O)N(C)[C@@H]1CCN2CCc3ccccc3[C@@H]2C1

pA2 [1]: 7.7
pA2 [2]: 6.17
SMILES: CCS(=O)(=O)N(C)[C@@H]1CCN2CCc3ccccc3[C@@H]2C1

pA2 [1]: < 5
pA2 [2]: 5.3
SMILES: CN([C@H]1CCN2CCc3ccccc3[C@H]2C1)S(C)(=O)=O

pA2 [1]: 7.87
pA2 [2]: 6.6
SMILES: CCCCS(=O)(=O)N(C)[C@@H]1CCN2CCc3ccccc3[C@@H]2C1

pA2 [1]: 7.1
pA2 [2]: 5.7
SMILES: CN([C@@H]1CCN2CCc3ccccc3[C@@H]2C1)S(N)(=O)=O

pA2 [1]: 7.1
pA2 [2]: 5.8
SMILES: CCCS(=O)(=O)N(C)[C@H]1CCN2CCc3ccccc3[C@H]2C1

pA2 [1]: 7.74
pA2 [2]: 6.8
SMILES: CCCCCS(=O)(=O)N(C)[C@@H]1CCN2CCc3ccccc3[C@@H]2C1

pA2 [1]: 7.56
pA2 [2]: 5.93
SMILES: CN([C@@H]1CCN2CCc3ccccc3[C@@H]2C1)S(=O)(=O)CC(F)(F)F

pA2 [1]: 7.61
pA2 [2]: 6.65
SMILES: CCN([C@@H]1CCN2CCc3ccccc3[C@@H]2C1)S(=O)(=O)CC(C)C

pA2 [1]: 8.11
pA2 [2]: 6.5
SMILES: CN([C@@H]1CCN2CCc3ccccc3[C@@H]2C1)S(=O)(=O)CC(C)(C)C

pA2 [1]: 5.7
SMILES: CN([C@@H]1CCN2CCc3ccccc3C2C1)S(C)(=O)=O (stereo partly drawn)

pA2 [1]: 7.26
pA2 [2]: 5.6
SMILES: CN(C)CCS(=O)(=O)N(C)[C@@H]1CCN2CCc3ccccc3[C@@H]2C1

pA2 [1]: 5.78
pA2 [2]: 5.86
SMILES: CCCS(=O)(=O)N(C)[C@@H]1CCN2CCc3ccccc3C2C1 (stereo partly drawn)

pA2 [1]: 8.05
pA2 [2]: 6.48
SMILES: CN([C@@H]1CCN2CCc3ccccc3[C@@H]2C1)S(C)(=O)=O (stereo in doubt)

pA2 [1]: 7.81
pA2 [2]: 6.04
SMILES: CN([C@@H]1CCN2CCc3ccccc3[C@@H]2C1)S(C)(=O)=O (stereo in doubt; 6)

pA2 [1]: 8.08
pA2 [2]: 6.34
SMILES: CCCS(=O)(=O)N(C)[C@@H]1CCN2CCc3ccccc3[C@@H]2C1 (stereo in doubt; 10)

pA2 [1]: 8.16
pA2 [2]: 6.49
SMILES: CC(C)CS(=O)(=O)N(C)[C@@H]1CCN2CCc3ccccc3[C@@H]2C1 (stereo in doubt; 16)

Continued, compound first:

SMILES: CN([C@@H]1CCN2CCc3ccccc3[C@@H]2C1)S(=O)(=O)c1ccccc1
pA2 [1]: 8.44
pA2 [2]: 7.05

SMILES: Cc1ccccc1S(=O)(=O)N(C)[C@@H]1CCN2CCc3ccccc3[C@@H]2C1
pA2 [1]: 7.87
pA2 [2]: 6.27

SMILES: CN([C@@H]1CCN2CCc3ccccc3[C@@H]2C1)S(=O)(=O)c1ccc(Cl)cc1
pA2 [1]: 7.6
pA2 [2]: 6.09

SMILES: COc1ccc(S(=O)(=O)N(C)[C@@H]2CCN3CCc4ccccc4[C@@H]3C2)cc1
pA2 [1]: 8.1
pA2 [2]: 6.5

SMILES: CN([C@@H]1CCN2CCc3ccccc3[C@@H]2C1)S(=O)(=O)N1CCCC1
pA2 [1]: 8.1
pA2 [2]: 6.7

SMILES: CN([C@@H]1CCN2CCc3ccccc3[C@@H]2C1)S(=O)(=O)c1ccsc1
pA2 [1]: 7.94
pA2 [2]: 6.65

SMILES: CNS(=O)(=O)N(C)[C@@H]1CCN2CCc3ccccc3[C@@H]2C1
pA2 [1]: 7.44
pA2 [2]: 6.19

SMILES: CC(C)CS(=O)(=O)N[C@@H]1CCN2CCc3ccccc3[C@@H]2C1
pA2 [1]: 6.34
pA2 [2]: 6.55

SMILES: CN([C@@H]1CCN2CCc3ccccc3[C@@H]2C1)S(=O)(=O)CC1CC1
pA2 [1]: 7.7
pA2 [2]: 6.7

SMILES: CCN([C@@H]1CCN2CCc3ccccc3[C@@H]2C1)S(C)(=O)=O
pA2 [1]: 7.39
pA2 [2]: 6.61

SMILES: CN([C@@H]1CCN2CCc3ccccc3[C@@H]2C1)S(=O)(=O)c1cccc2ccccc12
pA2 [1]: 8.06
pA2 [2]: 7.1

SMILES: CC(C)COC(=O)N(C)[C@@H]1CCN2CCc3ccccc3[C@@H]2C1
pA2 [2]: 7

SMILES: Cc1ccc(S(=O)(=O)N(C)[C@@H]2CCN3CCc4ccccc4[C@@H]3C2)cc1
pA2 [1]: 8.1
pA2 [2]: 6.84

SMILES: CCCCCCCCCCCCS(=O)(=O)N(C)[C@@H]1CCN2CCc3ccccc3[C@@H]2C1
pA2 [1]: < 5

SMILES: CN([C@@H]1CCN2CCc3ccccc3[C@@H]2C1)S(=O)(=O)c1cccc2cccnc12
pA2 [1]: 8.46
pA2 [2]: 6.84

SMILES: CN([C@@H]1CCN2CCc3ccccc3[C@@H]2C1)S(=O)(=O)C(F)(F)F
pA2 [1]: 7.15
pA2 [2]: 5.49

SMILES: C=CS(=O)(=O)N(C)[C@@H]1CCN2CCc3ccccc3[C@@H]2C1
pA2 [1]: 7.93
pA2 [2]: 6.32

SMILES: CN([C@@H]1CCN2CCc3ccccc3[C@@H]2C1)S(=O)(=O)c1cccnc1
pA2 [1]: 8.22
pA2 [2]: 6.73

SMILES: COC(=O)N(C)[C@@H]1CCN2CCc3ccccc3[C@@H]2C1
pA2 [2]: 6.56

SMILES: CCOC(=O)N(C)[C@@H]1CCN2CCc3ccccc3[C@@H]2C1
pA2 [2]: 6.93

SMILES: CN([C@@H]1CCN2CCc3ccccc3[C@@H]2C1)S(=O)(=O)CCN1CCCCC1
pA2 [1]: 7.5
pA2 [2]: 6.11

SMILES: CCCN([C@@H]1CCN2CCc3ccccc3[C@@H]2C1)S(C)(=O)=O
pA2 [1]: 6.77
pA2 [2]: 6.44

SMILES: COP(=O)(OC)N(C)[C@@H]1CCN2CCc3ccccc3[C@@H]2C1
pA2 [1]: 6.63
